Reference: BindingDB's records for doi:10.1021/jm00007a013 (Chul Research Center, 1995)

Experiment: In vitro inhibition of DHT (dihydrotestosterone) on proliferation of androgen-sensitive cancer Schionogi (SC-3) cells

**Q.** With `CCN(CC)C(=O)[C@H]1CCC2C3CC[C@H]4N(C)C(=O)CC[C@]4(C)C3CC[C@@]21C` (stereo partly drawn) [(4aR,6aS,7S,11aR)-1,4a,6a-Trimethyl-2-oxo-hexadecahydro-indeno[5,4-f]quinoline-7-carboxylic acid diethylamide] as the compound, how does the IC50 read?
**A.** 463 nM

**Q.** With `CCC(CC)N(C=O)[C@H]1CCC2C3CC[C@H]4N(C)C(=O)CC[C@]4(C)C3CC[C@@]21C` (stereo partly drawn) [N-(1-Ethyl-propyl)-N-((4aR,6aS,7S,11aR)-1,4a,6a-trimethyl-2-oxo-hexadecahydro-indeno[5,4-f]quinolin-7-yl)-formamide] as the compound, how does the IC50 read?
**A.** 90 nM

**Q.** With `CN1C(=O)CC[C@]2(C)C3CC[C@@]4(C)C(CC[C@@H]4N(C=O)CCC(C)(C)C)C3CC[C@@H]12` (stereo partly drawn) [N-(3,3-Dimethyl-butyl)-N-((4aR,6aS,7S,11aR)-1,4a,6a-trimethyl-2-oxo-hexadecahydro-indeno[5,4-f]quinolin-7-yl)-formamide] as the compound, how does the IC50 read?
**A.** 171 nM

**Q.** For `CC(C)CCN(C=O)[C@H]1CCC2C3CC[C@H]4N(C)C(=O)CC[C@]4(C)C3CC[C@@]21C` (stereo partly drawn) [N-(3-Methyl-butyl)-N-((4aR,6aS,7S,11aR)-1,4a,6a-trimethyl-2-oxo-hexadecahydro-indeno[5,4-f]quinolin-7-yl)-formamide], which IC50 is on record?
**A.** 46 nM

**Q.** With `CCCCN(C=O)[C@H]1CCC2C3CC[C@H]4N(C)C(=O)CC[C@]4(C)C3CC[C@@]21C` (stereo partly drawn) [N-Butyl-N-((4aR,6aS,7S,11aR)-1,4a,6a-trimethyl-2-oxo-hexadecahydro-indeno[5,4-f]quinolin-7-yl)-formamide] as the compound, how does the IC50 read?
**A.** 166 nM

**Q.** With `CCCCCCCN(C=O)[C@H]1CCC2C3CC[C@H]4N(C)C(=O)CC[C@]4(C)C3CC[C@@]21C` (stereo partly drawn) [N-Heptyl-N-((4aR,6aS,7S,11aR)-1,4a,6a-trimethyl-2-oxo-hexadecahydro-indeno[5,4-f]quinolin-7-yl)-formamide] as the compound, how does the IC50 read?
**A.** 58 nM

**Q.** For `CCCCCCN(C=O)[C@H]1CCC2C3CC[C@H]4N(C)C(=O)CC[C@]4(C)C3CC[C@@]21C` (stereo partly drawn) [N-Hexyl-N-((4aR,6aS,7S,11aR)-1,4a,6a-trimethyl-2-oxo-hexadecahydro-indeno[5,4-f]quinolin-7-yl)-formamide], which IC50 is on record?
**A.** 89 nM

**Q.** Which IC50 does the source give for `CC(C)CN(C=O)[C@H]1CCC2C3CC[C@H]4N(C)C(=O)CC[C@]4(C)C3CC[C@@]21C` (stereo partly drawn) [N-Isobutyl-N-((4aR,6aS,7S,11aR)-1,4a,6a-trimethyl-2-oxo-hexadecahydro-indeno[5,4-f]quinolin-7-yl)-formamide] here?
**A.** 994 nM

**Q.** Which IC50 does the source give for `CC(C)N(C=O)[C@H]1CCC2C3CC[C@H]4N(C)C(=O)CC[C@]4(C)C3CC[C@@]21C` (stereo partly drawn) [N-Isopropyl-N-((4aR,6aS,7S,11aR)-1,4a,6a-trimethyl-2-oxo-hexadecahydro-indeno[5,4-f]quinolin-7-yl)-formamide] here?
**A.** 162 nM

**Q.** Which IC50 does the source give for `CN(C=O)[C@H]1CCC2C3CC[C@H]4N(C)C(=O)CC[C@]4(C)C3CC[C@@]21C` (stereo partly drawn) [N-Methyl-N-((4aR,6aS,7S,11aR)-1,4a,6a-trimethyl-2-oxo-hexadecahydro-indeno[5,4-f]quinolin-7-yl)-formamide] here?
**A.** 1480 nM

**Q.** For `CCCCCCCCN(C=O)[C@H]1CCC2C3CC[C@H]4N(C)C(=O)CC[C@]4(C)C3CC[C@@]21C` (stereo partly drawn) [N-Octyl-N-((4aR,6aS,7S,11aR)-1,4a,6a-trimethyl-2-oxo-hexadecahydro-indeno[5,4-f]quinolin-7-yl)-formamide], which IC50 is on record?
**A.** 50 nM

**Q.** For `CCCCCN(C=O)[C@H]1CCC2C3CC[C@H]4N(C)C(=O)CC[C@]4(C)C3CC[C@@]21C` (stereo partly drawn) [N-Pentyl-N-((4aR,6aS,7S,11aR)-1,4a,6a-trimethyl-2-oxo-hexadecahydro-indeno[5,4-f]quinolin-7-yl)-formamide], which IC50 is on record?
**A.** 96 nM

**Q.** For `CCCN(C=O)[C@H]1CCC2C3CC[C@H]4N(C)C(=O)CC[C@]4(C)C3CC[C@@]21C` (stereo partly drawn) [N-Propyl-N-((4aR,6aS,7S,11aR)-1,4a,6a-trimethyl-2-oxo-hexadecahydro-indeno[5,4-f]quinolin-7-yl)-formamide], which IC50 is on record?
**A.** 989 nM
